From the supplement of paper PMC10307832

Assays:
Test in all cases: relative viability (nuclei count vs DMSO), 5 days (fraction); higher = more cells survive
[1] = system: A-427
Outline: (§1)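 Relative viability equals treated-well nuclei counts divided by vehicle-well nuclei counts. Counts came from 4× images of lung cancer cell lines grown in 1536-well plates for 5 days after pin-tool dosing on the day after seeding. Dosing used one drug alone or a fixed anchor-drug dose plus five library-drug doses (not always all listed) in √10 steps, and values are medians of duplicate plates.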

[2] = system: CAL-12T
Outline: as §1

[3] = system: COR-L 105
Outline: as §1

[4] = system: EMC-BAC-2
Outline: as §1

[5] = system: HARA
Outline: as §1

[6] = system: HCC-366
Outline: as §1

[7] = system: HCC-827
Outline: as §1

[8] = system: HOP-62
Outline: as §1

[9] = system: LCLC-103H
Outline: as §1

[10] = system: NCI-H1355
Outline: as §1

[11] = system: NCI-H1395
Outline: as §1

[12] = system: NCI-H1437
Outline: as §1

[13] = system: NCI-H1755
Outline: as §1

[14] = system: NCI-H1792
Outline: as §1

[15] = system: NCI-H1915
Outline: as §1

[16] = system: NCI-H1975
Outline: as §1

[17] = system: NCI-H2009
Outline: as §1

[18] = system: NCI-H2228
Outline: as §1

[19] = system: NCI-H23
Outline: as §1

[20] = system: NCI-H460
Outline: as §1

[21] = system: NCI-H727
Outline: as §1

[22] = system: SK-LU-1
Outline: as §1

[23] = system: SW 1573
Outline: as §1

`CC1(C)CCC(c2ccc(Cl)cc2)=C(CN2CCN(c3ccc(C(=O)NS(=O)(=O)c4ccc(N[C@H](CCN5CCOCC5)CSc5ccccc5)c(S(=O)(=O)C(F)(F)F)c4)cc3)CC2)C1` [Navitoclax] + CC(=O)c1c(C)c2cnc(Nc3ccc(N4CCNCC4)cn3)nc2n(C2CCCC2)c1=O [Palbociclib] (partner 0.5 µM) showed a relative viability ([1]; first compound 0.005 µM) of 0.502, a relative viability ([1]; first compound 0.01581 µM) of 0.512 and a relative viability ([1]; first compound 0.05 µM) of 0.516. For the same compound, the relative viability ([1]; first compound 0.1581 µM) was 0.514, the relative viability ([1]; first compound 0.5 µM) was 0.53 and the relative viability ([2]; first compound 0.005 µM) was 0.4. It also gave a relative viability ([2]; first compound 0.01581 µM) of 0.445, a relative viability ([2]; first compound 0.05 µM) of 0.409 and a relative viability ([2]; first compound 0.1581 µM) of 0.496. For the same compound, the relative viability ([2]; first compound 0.5 µM) was 0.405, the relative viability ([3]; first compound 0.005 µM) was 0.408 and the relative viability ([3]; first compound 0.01581 µM) was 0.46. For the same compound, the relative viability ([3]; first compound 0.05 µM) was 0.39, the relative viability ([3]; first compound 0.1581 µM) was 0.427 and the relative viability ([3]; first compound 0.5 µM) was 0.34. It also gave a relative viability ([4]; first compound 0.005 µM) of 0.522, a relative viability ([4]; first compound 0.01581 µM) of 0.533 and a relative viability ([4]; first compound 0.05 µM) of 0.532. The relative viability ([4]; first compound 0.1581 µM) was 0.5, the relative viability ([4]; first compound 0.5 µM) was 0.507 and the relative viability ([5]; first compound 0.005 µM) was 0.236. It also gave a relative viability ([5]; first compound 0.01581 µM) of 0.271, a relative viability ([5]; first compound 0.05 µM) of 0.243 and a relative viability ([5]; first compound 0.1581 µM) of 0.191. It also gave a relative viability ([5]; first compound 0.5 µM) of 0.216, a relative viability ([6]; first compound 0.005 µM) of 0.355 and a relative viability ([6]; first compound 0.01581 µM) of 0.48. The relative viability ([6]; first compound 0.1581 µM) was 0.35, the relative viability ([6]; first compound 0.5 µM) was 0.34 and the relative viability ([7]; first compound 0.005 µM) was 0.582. The relative viability ([7]; first compound 0.01581 µM) was 0.528, the relative viability ([7]; first compound 0.05 µM) was 0.374 and the relative viability ([7]; first compound 0.1581 µM) was 0.477. For the same compound, the relative viability ([7]; first compound 0.5 µM) was 0.437, the relative viability ([8]; first compound 0.005 µM) was 0.449 and the relative viability ([8]; first compound 0.01581 µM) was 0.442. For the same compound, the relative viability ([8]; first compound 0.05 µM) was 0.429, the relative viability ([8]; first compound 0.1581 µM) was 0.391 and the relative viability ([8]; first compound 0.5 µM) was 0.448. For the same compound, the relative viability ([9]; first compound 0.005 µM) was 0.453, the relative viability ([9]; first compound 0.01581 µM) was 0.487 and the relative viability ([9]; first compound 0.05 µM) was 0.486. It also gave a relative viability ([9]; first compound 0.1581 µM) of 0.443, a relative viability ([9]; first compound 0.5 µM) of 0.418 and a relative viability ([10]; first compound 0.005 µM) of 0.381. For the same compound, the relative viability ([10]; first compound 0.01581 µM) was 0.438, the relative viability ([10]; first compound 0.05 µM) was 0.429 and the relative viability ([10]; first compound 0.1581 µM) was 0.385. It also gave a relative viability ([10]; first compound 0.5 µM) of 0.409, a relative viability ([11]; first compound 0.005 µM) of 0.617 and a relative viability ([11]; first compound 0.01581 µM) of 0.664. For the same compound, the relative viability ([11]; first compound 0.05 µM) was 0.674, the relative viability ([11]; first compound 0.1581 µM) was 0.653 and the relative viability ([11]; first compound 0.5 µM) was 0.583. For the same compound, the relative viability ([12]; first compound 0.005 µM) was 0.295, the relative viability ([12]; first compound 0.01581 µM) was 0.317 and the relative viability ([12]; first compound 0.05 µM) was 0.2. For the same compound, the relative viability ([12]; first compound 0.1581 µM) was 0.291, the relative viability ([12]; first compound 0.5 µM) was 0.308 and the relative viability ([13]; first compound 0.005 µM) was 0.433. It also gave a relative viability ([13]; first compound 0.01581 µM) of 0.482, a relative viability ([13]; first compound 0.05 µM) of 0.436 and a relative viability ([13]; first compound 0.1581 µM) of 0.477. It also gave a relative viability ([13]; first compound 0.5 µM) of 0.488, a relative viability ([14]; first compound 0.005 µM) of 0.651 and a relative viability ([14]; first compound 0.01581 µM) of 0.661. For the same compound, the relative viability ([14]; first compound 0.05 µM) was 0.563, the relative viability ([14]; first compound 0.1581 µM) was 0.628 and the relative viability ([14]; first compound 0.5 µM) was 0.647. It also gave a relative viability ([15]; first compound 0.005 µM) of 0.585, a relative viability ([15]; first compound 0.01581 µM) of 0.544 and a relative viability ([15]; first compound 0.05 µM) of 0.499. It also gave a relative viability ([15]; first compound 0.1581 µM) of 0.507, a relative viability ([15]; first compound 0.5 µM) of 0.509 and a relative viability ([16]; first compound 0.005 µM) of 0.533. For the same compound, the relative viability ([16]; first compound 0.01581 µM) was 0.661, the relative viability ([16]; first compound 0.05 µM) was 0.437 and the relative viability ([16]; first compound 0.1581 µM) was 0.532. It also gave a relative viability ([16]; first compound 0.5 µM) of 0.585, a relative viability ([17]; first compound 0.005 µM) of 0.186 and a relative viability ([17]; first compound 0.01581 µM) of 0.302. The relative viability ([17]; first compound 0.05 µM) was 0.202, the relative viability ([17]; first compound 0.1581 µM) was 0.255 and the relative viability ([17]; first compound 0.5 µM) was 0.222. The relative viability ([18]; first compound 0.005 µM) was 0.915, the relative viability ([18]; first compound 0.01581 µM) was 0.986 and the relative viability ([18]; first compound 0.1581 µM) was 0.703. It also gave a relative viability ([18]; first compound 0.5 µM) of 0.687, a relative viability ([19]; first compound 0.005 µM) of 0.518 and a relative viability ([19]; first compound 0.01581 µM) of 0.53. It also gave a relative viability ([19]; first compound 0.05 µM) of 0.496, a relative viability ([19]; first compound 0.1581 µM) of 0.446 and a relative viability ([19]; first compound 0.5 µM) of 0.534. For the same compound, the relative viability ([20]; first compound 0.005 µM) was 0.167, the relative viability ([20]; first compound 0.01581 µM) was 0.159 and the relative viability ([20]; first compound 0.05 µM) was 0.0945. The relative viability ([20]; first compound 0.1581 µM) was 0.217, the relative viability ([20]; first compound 0.5 µM) was 0.13 and the relative viability ([21]; first compound 0.005 µM) was 0.625. For the same compound, the relative viability ([21]; first compound 0.01581 µM) was 0.602, the relative viability ([21]; first compound 0.05 µM) was 0.67 and the relative viability ([21]; first compound 0.1581 µM) was 0.584. The relative viability ([21]; first compound 0.5 µM) was 0.527, the relative viability ([22]; first compound 0.005 µM) was 0.396 and the relative viability ([22]; first compound 0.01581 µM) was 0.508. The relative viability ([22]; first compound 0.05 µM) was 0.337, the relative viability ([22]; first compound 0.1581 µM) was 0.384 and the relative viability ([22]; first compound 0.5 µM) was 0.414. The relative viability ([23]; first compound 0.005 µM) was 0.417, the relative viability ([23]; first compound 0.01581 µM) was 0.41 and the relative viability ([23]; first compound 0.05 µM) was 0.448. It also gave a relative viability ([23]; first compound 0.1581 µM) of 0.399 and a relative viability ([23]; first compound 0.5 µM) of 0.38.
